Results taken from article PMC12627933, “A First-In-Human Study of the SUMOylation Inhibitor Subasumstat in Patients with Advanced/Metastatic Solid Tumors or Relapsed/Refractory Hematologic Malignancies” (Cancer Research Communications, 2025).

Assay: Safety: treatment-emergent adverse events (NCI CTCAE v5.0; CRS per ASTCT), phase I/II study NCT03648372
Type: in vivo
Settings: Phase I (n = 84)
Procedure: This study comprised two parts: a phase I dose escalation and a phase II dose expansion (Fig. 1). In the dose-escalation phase, patients were enrolled to receive subasumstat intravenously as a 1-hour (±10 minutes) infusion on days 1, 4, 8, and 11 of a 21-day cycle (biweekly schedule). […] Dose escalation was based on cohort with an adaptive design using Bayesian logistic regression modeling with overdose control. The starting dose of subasumstat was based on Good Laboratory Practice animal toxicity studies and supported by the estimation of a minimum anticipated biologically effective level. A detailed description of dose-limiting toxicities (DLT) is presented in the Supplementary Methods.
The phase II dose-expansion portion enrolled patients to receive the recommended phase II dose (RP2D) determined in phase I, with each cohort assessed separately using an adaptive two-stage design for a single proportion (see Supplementary Methods). For stage 1, each cohort was analyzed when a prespecified number of patients were enrolled and had the potential to have at least one posttreatment scan [i.e., after the first disease assessment, 2 months from cycle 1 day 1 (C1D1)]. If the prespecified minimal response rate was not achieved in the first stage for a given cohort, that cohort would be closed to enrollment. […] The final analysis of the primary endpoints for each cohort would take place when all ongoing patients had the opportunity to complete the 6-month disease assessment. Across both phases, patients received subasumstat for up to 1 year or until confirmed disease progression, unacceptable toxicity, if any withdrawal criterion from the study was met, or if discontinuation of subasumstat occurred.
The occurrence of DLTs was assessed during cycle 1 (DLTs are described in the Supplementary Methods). Treatment-emergent adverse events (TEAE) were graded according to NCI Common Terminology Criteria for Adverse Events version 5.0, except for cytokine release syndrome (CRS), which was graded according to the American Society for Transplantation and Cellular Therapy Consensus Grading for CRS ([20]).
It was anticipated that approximately 70 DLT-evaluable patients would be enrolled for dose escalation. The safety analysis set included all patients who received at least one dose, even if incomplete, of subasumstat. […] The overall response rate (ORR) was defined as the proportion of patients who achieved complete response and partial response (PR) during the study. The disease control rate (DCR) was defined as the proportion of patients who achieved […] as per RECIST v1.1 for solid tumors or Lugano classification for lymphomas. […] Progression-free survival was summarized descriptively using the Kaplan–Meier method.

In the case of `Cc1sc(C(=O)c2cncnc2N[C@@H]2C[C@H](COS(N)(=O)=O)[C@@H](O)C2)cc1[C@@H]1NCCc2ccc(Cl)cc21` [subasumstat], the “AESI (adverse event of special interest)” value is reported as 9 (10.7) n (%), the “AESI related to subasumstat” value is reported as 9 (10.7) n (%) and the “AESI: CRS” value is reported as 9 (10.7) n (%). The “Grade ≥3 TEAE: Abdominal pain” value was 4 (4.8) n (%), the “Grade ≥3 TEAE: Acute kidney injury” value was 2 (2.4) n (%) and the “Grade ≥3 TEAE: Anemia” value was 9 (10.7) n (%). The “Grade ≥3 TEAE: Aspartate aminotransferase increased” value was 2 (2.4) n (%), the “Grade ≥3 TEAE: Blood bilirubin increased” value was 2 (2.4) n (%) and the “Grade ≥3 TEAE: Dyspnea” value was 4 (4.8) n (%). The “Grade ≥3 TEAE: Fatigue” value was 5 (6.0) n (%), the “Grade ≥3 TEAE: Hyperbilirubinemia” value was 0 n (%) and the “Grade ≥3 TEAE: Hypertension” value was 1 (1.2) n (%). For the same compound, the “Grade ≥3 TEAE: Hypokalemia” value was 7 (8.3) n (%), the “Grade ≥3 TEAE: Hypomagnesemia” value was 2 (2.4) n (%) and the “Grade ≥3 TEAE: Hypophosphatemia” value was 2 (2.4) n (%). For the same compound, the “Grade ≥3 TEAE: Lymphocyte count decreased” value was 5 (6.0) n (%), the “Grade ≥3 TEAE: Lymphopenia” value was 1 (1.2) n (%) and the “Grade ≥3 TEAE: Muscular weakness” value was 0 n (%). The “Grade ≥3 TEAE: Nausea” value was 2 (2.4) n (%), the “Grade ≥3 TEAE: Neutropenia” value was 0 n (%) and the “Grade ≥3 TEAE: Platelet count increased” value was 1 (1.2) n (%). The “Grade ≥3 TEAE: Pleural effusion” value was 2 (2.4) n (%), the “Grade ≥3 TEAE: Pneumonia” value was 1 (1.2) n (%) and the “Grade ≥3 TEAE: Pneumonitis” value was 2 (2.4) n (%). The “Grade ≥3 TEAE: Pyrexia” value was 2 (2.4) n (%), the “Grade ≥3 TEAE: Small intestinal obstruction” value was 4 (4.8) n (%) and the “Grade ≥3 TEAE: Thrombocytopenia” value was 1 (1.2) n (%). The “Grade ≥3 TEAE: Vomiting” value was 4 (4.8) n (%), the “Grade ≥3 TEAEs” value was 48 (57.1) n (%) and the “Grade ≥3 TEAEs related to subasumstat” value was 18 (21.4) n (%). The “Grade ≥3 subasumstat-related TEAE: Anemia” value was 1 (1.2) n (%), the “Grade ≥3 subasumstat-related TEAE: Aspartate aminotransferase increased” value was 2 (2.4) n (%) and the “Grade ≥3 subasumstat-related TEAE: Hypokalemia” value was 2 (2.4) n (%). For the same compound, the “Grade ≥3 subasumstat-related TEAE: Lymphocyte count decreased” value was 4 (4.8) n (%), the “Grade ≥3 subasumstat-related TEAE: Muscular weakness” value was 0 n (%) and the “Grade ≥3 subasumstat-related TEAE: Neutropenia” value was 0 n (%). For the same compound, the “Grade ≥3 subasumstat-related TEAE: Platelet count increased” value was 1 (1.2) n (%), the “Grade ≥3 subasumstat-related TEAE: Pneumonitis” value was 2 (2.4) n (%) and the “Grade ≥3 subasumstat-related TEAE: Thrombocytopenia” value was 1 (1.2) n (%). The On-study deaths was 10 (11.9) n (%), the “Patients with at least one grade ≥3 TEAE” value was 48 (57.1) n (%) and the “Patients with at least one grade ≥3 subasumstat-related TEAE” value was 18 (21.4) n (%). The Serious adverse events was 37 (44.0) n (%), the “Serious adverse events related to subasumstat” value was 7 (8.3) n (%) and the “Subasumstat-related TEAE: Anemia” value was 4 (4.8) n (%). The “Subasumstat-related TEAE: CRS” value was 9 (10.7) n (%), the “Subasumstat-related TEAE: Chills” value was 17 (20.2) n (%) and the “Subasumstat-related TEAE: Decreased appetite” value was 10 (11.9) n (%). For the same compound, the “Subasumstat-related TEAE: Diarrhea” value was 15 (17.9) n (%), the “Subasumstat-related TEAE: Dyspnea” value was 4 (4.8) n (%) and the “Subasumstat-related TEAE: Fatigue” value was 27 (32.1) n (%). The “Subasumstat-related TEAE: Headache” value was 21 (25.0) n (%), the “Subasumstat-related TEAE: Hypokalemia” value was 7 (8.3) n (%) and the “Subasumstat-related TEAE: IRR” value was 5 (6.0) n (%). For the same compound, the “Subasumstat-related TEAE: Myalgia” value was 6 (7.1) n (%), the “Subasumstat-related TEAE: Nausea” value was 29 (34.5) n (%) and the “Subasumstat-related TEAE: Pyrexia” value was 23 (27.4) n (%). For the same compound, the “Subasumstat-related TEAE: Vomiting” value was 13 (15.5) n (%), the “TEAE: Abdominal distension” value was 11 (13.1) n (%) and the “TEAE: Abdominal pain” value was 17 (20.2) n (%). The “TEAE: Anemia” value was 12 (14.3) n (%), the “TEAE: Arthralgia” value was 12 (14.3) n (%) and the “TEAE: Back pain” value was 12 (14.3) n (%). The “TEAE: CRS” value was 9 (10.7) n (%), the “TEAE: Chills” value was 20 (23.8) n (%) and the “TEAE: Constipation” value was 14 (16.7) n (%). For the same compound, the “TEAE: Decreased appetite” value was 26 (31.0) n (%), the “TEAE: Dehydration” value was 10 (11.9) n (%) and the “TEAE: Diarrhea” value was 29 (34.5) n (%).
